Publication PMC3161871, “Heteroarylketones inhibit astroglial interleukin-6 expression via a STAT3/NF-κB signaling pathway” (Journal of Neuroinflammation, 2011)

Columns and labels:
[1] = system: OSM-stimulated IL-6 secretion from U343 cells; assay: OSM-induced IL-6 release from U343 glioma cells (IL-6 ELISA of conditioned medium); format: cell-based, human
Experimental: The human glioma cell line U343 [34] was maintained in DMEM containing 10% fetal bovine serum and 60 μg/ml gentamycin (Invitrogen, Darmstadt, Germany) at 37°C in a 10% CO2 atmosphere.
(§1) Measurements of IL-6 in conditioned medium and murine plasma samples were done by means of human- or murine-specific IL-6 Cytoset kits (Invitrogen, Darmstadt, Germany) according to manufacturer's protocols.
Using the characterized cell culture model of OSM-induced IL-6 expression, our in-house compound libraries were screened for potent IL-6 expression inhibitors. Human U343 glioma cells were treated with 100 ng/ml OSM for 24 h. The analysis by IL-6 ELISA identified a set of structurally related compounds as potent inhibitors of IL-6 secretion (Table 1). […] HAKs with proline in position P1 are known from the literature as inhibitors of prolyl endopeptidase (PREP), a proline-specific serine protease.

[2] = system: LPS-induced IL-6 release in primary rat astrocytes; assay: LPS-induced IL-6 release in primary rat astrocytes (ELISA); format: cell-based; conditions: 1 μg/ml LPS, 20 μM compound, 24 h
Experimental: According to Löffler, astrocyte-rich primary cell cultures were started with brains of newborn mice and rats and were maintained in Dulbecco's modified Eagle's medium (DMEM) for 33 days at 37°C in a humified atmosphere with 95% air/5% CO2.
as §1
Figure 5 Suppression of LPS-induced IL-6 release in primary murine astrocytes by selected HAK compounds. […] Astrocytes derived from newborn mice and rats were cultivated for 33 days followed by stimulation with 1 μg/ml LPS and treatment with compounds HAK-2 and HAK-5 (20 μM). After 24 hours conditioned media were analyzed with IL-6 specific ELISA. Data (mean ± SD) were obtained from experiments carried out in quadruplicate and statistical analysis was performed using the paired t test. Amount of IL-6 in LPS-treated control sample was set to 100%. ns, not significant; **p < 0.01; ***p < 0.001.
Primary murine astrocytes stimulated with 1 μg/ml LPS were co-treated with compounds HAK-2 and HAK-5 at a concentration of 20 μM each for 24 h. The observed effect of compounds HAK-2 and HAK-5 on LPS stimulation was similar to that of OSM-induced IL-6 expression in human U343 glioma cells (Figures 5A and 5B). […]

STAT3/p65 complex = assay: Co-immunoprecipitation of p65 and STAT3 in OSM-stimulated U343 cells; format: cell-based, human; conditions: 100 ng/ml OSM, 20 μM compound, 6 h
Experimental: Cell lysates from 4 × 10^6 U343 cells/sample were obtained as described above. From each sample 200 μg of total protein were immunoprecipitated with 2 μg rabbit anti-p65 antibody (Santa Cruz Biotechnology; Heidelberg, Germany) or A. dest. (control) overnight at 4°C. Immunoprecipitated samples were incubated with 20 μl Dynabeads Protein G (Thermo Fisher Scientific, Karlsruhe, Germany) for 1 h at 4°C. Beads were washed 3 times with 1 ml PBS. Preparation of samples for SDS-PAGE analysis was done by means of dilution with SDS-PAGE sample buffer (Invitrogen, Darmstadt, Germany), followed by denaturation at 90°C for 10 min. SDS-PAGE analysis were performed as described before.
Normally, STAT3 is activated by phosphorylation at tyrosine 705, which induces dimerization, nuclear translocation and DNA binding. In contrast to other transcription factors like NF-κB, Creb and c/EBPb, STAT3 can not bind directly to the IL-6 promoter, because there are no STAT3 binding elements present. It is known from literature that several forms of interactions and cross talks between NF-κB and STAT3 exist. For instance, recent studies have shown a physical interaction between STAT3 and NF-κB [42, 43]. The importance of pSTAT3^S727 for protein interactions are under discussion. However, there is no information so far on the role of pSTAT3^S727 for the interaction with NF-κB. […]

[3] = Brain bioavailability by LC-MS/MS of mouse plasma and brain samples; format: in vivo
Experimental: Based on the results obtained from primary murine astrocytes, we reasoned that HAK compounds might also suppress elevated IL-6 expression in vivo. Therefore, bioactivity of the compound HAK-2 was analyzed in the LPS-induced mouse septic shock model. In preparation of this in vivo study, selected HAK compounds were characterized in detail concerning brain bioavailability. […] For further in vivo investigations compound HAK-2 with a logBB of -0.22 was selected.

- logBB [3]: -0.22
Structure (SMILES): C[C@H](NC(=O)OCc1ccccc1)C(=O)N1CCC[C@H]1C(=O)c1nc2ccccc2s1 [HAK-2, Z-Ala-Pro-BTh]
- Remaining IL-6 expression [% of control] ([1]; 100 ng/ml OSM, 24 h, IL-6 release of vehicle-treated cells set to 100% (n = 2), mean ± SD): 18.7 ± 3.87 % of control
- Effect on OSM-induced IL-6 secretion (in words) ([1]; OSM-stimulated): significantly reduced
- Reduction of LPS-induced IL-6 expression [2]: 50%
- p65-mediated STAT3 co-immunoprecipitation (STAT3/p65 complex): clear reduction
